Reference: patent publication US9187426B2, “Organic compounds” (Novartis AG, priority 2008, dated 2015)
pIC50: −log10 of the molar value.

How the values were obtained:
[1] = target: T1, Stearoyl-CoA Desaturase (SCD1) (Mus musculus, UniProt P13516); assay: SCD microsomal assay: release of 3H2O from [9,10-3H]stearoyl-CoA in mouse liver microsomes; type: biochemical; conditions: 15 min incubation, 25° C.
T1 construct: Reactions are started by adding 50 μL of microsomes (1.25 mg/mL); from tissue; host or cells: liver microsomes of male ICR outbred mice on a high-carbohydrate, low-fat diet
T1 sequence (P13516 1-355): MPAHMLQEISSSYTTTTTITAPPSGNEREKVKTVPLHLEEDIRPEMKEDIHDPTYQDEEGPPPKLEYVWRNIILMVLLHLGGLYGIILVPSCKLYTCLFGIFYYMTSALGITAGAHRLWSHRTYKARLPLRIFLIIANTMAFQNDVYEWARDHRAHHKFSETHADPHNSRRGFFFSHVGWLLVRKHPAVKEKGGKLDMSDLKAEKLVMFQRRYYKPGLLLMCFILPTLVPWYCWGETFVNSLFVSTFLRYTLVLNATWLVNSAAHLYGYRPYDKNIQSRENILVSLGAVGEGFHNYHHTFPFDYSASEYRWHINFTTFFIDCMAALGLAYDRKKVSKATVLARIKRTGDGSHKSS
Excerpt: Measuring Stearoyl-CoA Desaturase Inhibition Activity of a Test Compound Using Mouse Liver Microsomes
The identification of compounds of the invention as SCD inhibitors was readily accomplished using the SCD microsomal assay procedure described in Shanklin J. and Summerville C., Proc. Natl. Acad. Sci. USA (1991), Vol. 88, pp. 2510-2514.
Male ICR outbread mice, on a high-carbohydrate, low fat diet, under light halothane (15% in mineral oil) anesthesia are sacrificed by exsanguination during periods of high enzyme activity. Livers are immediately rinsed with cold 0.9% NaCl solution, weighed and minced with scissors. All procedures are performed at 4° C. unless specified otherwise. Livers are homogenized in a solution (1/3 w/v) containing 0.25 M sucrose, 62 mM potassium phosphate buffer (pH 7.0), 0.15 M KCl, 15 mM N-acetyleysteine, 5 mM MgCl2, and 0.1 mM EDTA using 4 strokes of a Potter-Elvehjem tissue homogenizer. The homogenate is centrifuged at 10,400×g for 20 min to eliminate mitochondria and cellular debris. The supernatant is filtered through a 3-layer cheesecloth and centrifuged at 105,000×g for 60 min. The microsomal pellet is gently resuspended in the same homogenization solution with a small glass/teflon homogenizer and stored at −70° C. The absence of mitochondrial contamination is enzymatically assessed. The protein concentration is measured using bovine serum albumin as the standard.
Desaturase activity is measured as the release of ^3H2O from [9,10-^3H]stearoyl-CoA. Reactions per assay point conditions are as follows: 2 μL 1.5 mM stearoyl-CoA, 0.25 μL 1 mCi/mL ^3H stearoyl CoA, 10 μL 20 mM NADH, 36.75 μL 0.1 M PK buffer (K2HPO4/NaH2PO4, pH 7.2). The test compound or control solution is added in a 1 μL volume. Reactions are started by adding 50 μL of microsomes (1.25 mg/mL). The plates are mixed and after 15 min incubation on a heating block (25° C.), the reactions are stopped by the addition of 10 μL 60% PCA. An aliquot of 100 μL is then transferred to a filter plate pretreated with charcoal and the plate centrifuged at 4000 rpm for 1 minute. The flow through containing the ^3H2O released by the SCD1 desaturation reaction is added to scintillation fluid and the radioactivity measured in a Packard TopCount. The data is analysed to identify the IC50 for test compounds and reference compounds.

Row | melting point [°C] | pIC50 [1] | Compound
1 | 175 to 176 | 5.92 | NC(=O)c1ccnc(N2CCN(Cc3ccc(OC(F)(F)F)cc3)C2=O)c1 [Example 26.32, 2-(2-Oxo-3-(4-(trifluoromethoxy)-benzyl)imidazolidin-1-yl)isonicotinamide]
2 | 163 to 165 | 8.00 | O=C(NCc1cncs1)c1ccnc(N2CCN(Cc3ccc(C(F)(F)F)cc3)C2=O)c1 [Example 26.19, 2-(2-Oxo-3-(4-(trifluoromethyl)benzyl)imidazolidin-1-yl)-N-(thiazol-5-ylmethyl)-isonicotinamide]
3 | 161 to 163 | 8.00 | O=C(NCc1ccccn1)c1ccnc(N2CCN(Cc3ccc(C(F)(F)F)cc3)C2=O)c1 [Example 26.12, 2-(2-Oxo-3-(4-(trifluoromethyl)benzyl)imidazolidin-1-yl)-N-(pyridin-2-ylmethyl)-isonicotinamide]

The next lines start with the molecule.

Row | Compound | melting point [°C] | pIC50 [1]
4 | O=C(NCc1ccccn1)c1ccnc(N2CCN(Cc3ccc(F)c(F)c3)C2=O)c1 [Example 25, 2-(3-(3,4-Difluorobenzyl)-2-oxoimidazolidin-1-yl)-N-(pyridin-2-ylmethyl)-isonicotinamide] | 99 to 101 | 7.70
5 | O=C(NCc1ccncc1)c1ccnc(N2CCN(CC3CC3)C2=O)c1 [Example 15.11, 2-(3-(cyclopropylmethyl)-2-oxoimidazolidin-1-yl)-N-(pyridin-4-ylmethyl)isonicotinamide] | 160 to 162 | 6.17
6 | O=C(NCc1ccc(F)c(F)c1)c1ccnc(N2CCN(Cc3cccnc3)C2=O)c1 [Example 15.17, N-(3,4-difluorobenzyl)-2-(2-oxo-3-(pyridin-3-ylmethyl)imidazolidin-1-yl)isonicotinamide] | 178 to 180 | 6.59
7 | O=C(NCc1cocn1)c1ccnc(N2CCN(Cc3ccc(F)cc3)C2=O)c1 [Example 14, 2-(3-(4-fluorobenzyl)-2-oxoimidazolidin-1-yl)-N-(oxazol-4-ylmethyl)isonicotinamide] | 197 to 199 | 6.70
